These results are taken from ChEMBL document CHEMBL3046549, “Comparative quantitative structureactivity relationship study of some 1-aminocyclopentyl-3-carboxyamides as CCR2 inhibitors using stepwise MLR, FA-MLR, and GA-PLS” (Med Chem Res, 2012).

Chain of C-C chemokine receptor type 2 (P41597 whole entry): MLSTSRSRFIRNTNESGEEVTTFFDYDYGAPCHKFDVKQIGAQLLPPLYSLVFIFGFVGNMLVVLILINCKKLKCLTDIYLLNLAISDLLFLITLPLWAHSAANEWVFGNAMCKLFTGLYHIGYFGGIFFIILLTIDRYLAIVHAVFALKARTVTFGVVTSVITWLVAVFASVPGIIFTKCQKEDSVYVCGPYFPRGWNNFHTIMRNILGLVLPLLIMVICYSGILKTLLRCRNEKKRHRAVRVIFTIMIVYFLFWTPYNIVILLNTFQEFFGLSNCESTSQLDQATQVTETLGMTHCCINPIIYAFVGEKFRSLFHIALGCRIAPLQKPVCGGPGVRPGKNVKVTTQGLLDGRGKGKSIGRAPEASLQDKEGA

This assay concerns the target C-C chemokine receptor type 2 (Homo sapiens, UniProt P41597). In words: Antagonist activity at CCR2 (unknown origin).
A word on the IC50: it is the concentration at which inhibition is half-maximal. Low values mean inhibition by little substance, high ones a need for much substance. For the compound `CC(C)[C@]1(C(=O)NCc2cc(C(F)(F)F)cc(C(F)(F)F)c2)CC[C@@H](NC2CCOCC2(C)C)C1` (stereo partly specified), the IC50 is 28 nM.

`CC(C)[C@]1(C(=O)NCc2cc(C(F)(F)F)cc(C(F)(F)F)c2)CC[C@@H](NC2CCOCC2F)C1` (stereo partly specified) gave an IC50 of 51.1 nM.

Turning to `CC(C)[C@]1(C(=O)NCc2cc(C(F)(F)F)cc(C(F)(F)F)c2)CC[C@@H](NC2CCOCC2C(F)(F)F)C1` (stereo partly specified), it took 6 nM to reach half-maximal inhibition (IC50).

Consider `CC1COCCC1N[C@@H]1CC[C@@](C(=O)NCc2cc(C(F)(F)F)cc(C(F)(F)F)c2)(C(C)C)C1` (stereo partly specified), for which the IC50 is 239 nM.

`CCCC1COCCC1N[C@@H]1CC[C@@](C(=O)NCc2cc(C(F)(F)F)cc(C(F)(F)F)c2)(C(C)C)C1` (stereo partly specified) gave a 50% inhibitory concentration (IC50) of 3 nM.

`CC(C)[C@]1(C(=O)NCc2cc(C(F)(F)F)cc(C(F)(F)F)c2)CC[C@@H](NC2CCOCC2C2CC2)C1` (stereo partly specified) gave an IC50 of 7.8 nM.

`CC(C)[C@]1(C(=O)NCc2cc(C(F)(F)F)cc(C(F)(F)F)c2)CC[C@@H](NC2CCOCC2O)C1` (stereo partly specified) gave an IC50 of 123 nM.

`CC(C)[C@]1(C(=O)NCc2cc(C(F)(F)F)cc(C(F)(F)F)c2)CC[C@@H](NC2CCCOC2)C1` (stereo partly specified) gave a half-inhibitory concentration (IC50) of 4.6 nM.

On to `CC1CC(N[C@@H]2CC[C@@](C(=O)NCc3cc(C(F)(F)F)cc(C(F)(F)F)c3)(C(C)C)C2)CCO1` (stereo partly specified), for which the IC50 is 766 nM.

Regarding `CC1COCC(C)C1N[C@@H]1CC[C@@](C(=O)NCc2cc(C(F)(F)F)cc(C(F)(F)F)c2)(C(C)C)C1` (stereo partly specified), the IC50 was 230 nM.

On to `CC(C)[C@]1(C(=O)NCc2cc(C(F)(F)F)cc(C(F)(F)F)c2)CC[C@@H](NC2CCSC2)C1` (stereo partly specified), for which the IC50 is 22 nM.

`CC(C)[C@]1(C(=O)NCc2cc(C(F)(F)F)cc(C(F)(F)F)c2)CC[C@@H](NC2CCOCC2)C1` had a 50% inhibitory concentration (IC50) of 56 nM.

On to `CC(C)[C@]1(C(=O)NCc2cc(C(F)(F)F)cc(C(F)(F)F)c2)CC[C@@H](NC2CCSCC2)C1`, for which the IC50 was 36 nM.

In the case of `CCC1COCCC1N[C@@H]1CC[C@@](C(=O)NCc2cc(C(F)(F)F)cc(C(F)(F)F)c2)(C(C)C)C1` (stereo partly specified), 1.5 nM corresponded to half-maximal inhibition (IC50).

For `CC(C)[C@]1(C(=O)NCc2cc(C(F)(F)F)cc(C(F)(F)F)c2)CC[C@@H](NC2CCOCC2(O)C(F)(F)F)C1` (stereo partly specified), the IC50 is 5.5 nM.

Regarding `CC(C)[C@]1(C(=O)NCc2cc(C(F)(F)F)cc(C(F)(F)F)c2)CC[C@@H](NC2CCc3ccccc3C2)C1` (stereo partly specified), it took 187 nM to reach half-maximal inhibition (IC50).
